Active and inactive are the calls of the source.
How the values were obtained:
[1] = viability of PTEN-deleted HCT116 cells – cell-based, HCT116 PTEN knockout, dose response (AID 1047); assay type: functional;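 note: HCT116 colon tumor cells with PTEN knocked out; cells exposed to compound for 60 hours before readout; potency for loss of cell viability measured by luminescence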
[2] = viability of HCT116 lacking mutant beta-catenin – cell-based, human colon tumor, dose response (AID 1045); assay type: functional;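 note: HCT116 colon tumor cells with beta catenin knocked out; cells exposed to compound for 60 hours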
[3] = Luminescence Cell-Based Dose Retest to Confirm Inhibitors of Cancer Stem Cells. [Related pubchem assays (depositor defined):AID2717, AID2721]; assay type: functional; details: Homo sapiens
[4] = biological target: T1, Microphthalmia-associated transcription factor (Homo sapiens, UniProt O75030); assay: reducers of TRPM1 reporter luminescence, concentration series – cell-based, SK-MEL-5, cherry-picked, set 3, MITF inhibitor project, dose response (AID 493073); assay type: functional;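 note: SK-MEL-5 melanoma cells with luciferase driven by the MITF target TRPM1 promoter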
T1 sequence (O75030 whole entry): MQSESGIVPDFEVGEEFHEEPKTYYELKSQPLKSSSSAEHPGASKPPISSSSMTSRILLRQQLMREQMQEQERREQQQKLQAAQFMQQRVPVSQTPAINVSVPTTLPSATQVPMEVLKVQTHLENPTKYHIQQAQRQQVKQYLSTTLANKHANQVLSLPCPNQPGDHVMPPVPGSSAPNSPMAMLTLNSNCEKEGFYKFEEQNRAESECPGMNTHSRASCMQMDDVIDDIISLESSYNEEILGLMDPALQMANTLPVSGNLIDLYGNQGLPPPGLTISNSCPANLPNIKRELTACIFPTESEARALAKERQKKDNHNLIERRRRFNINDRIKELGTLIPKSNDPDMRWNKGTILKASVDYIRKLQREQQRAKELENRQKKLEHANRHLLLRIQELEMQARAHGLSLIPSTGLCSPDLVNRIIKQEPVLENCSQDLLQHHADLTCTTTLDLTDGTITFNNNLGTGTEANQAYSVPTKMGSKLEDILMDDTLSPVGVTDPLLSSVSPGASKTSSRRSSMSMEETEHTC

A-375 [5] = assay: proliferation inhibition in MITF-low A375 cells – cell-based, cherry-pick samples, set 2, counter-screen for MITF modulator project, dose response (AID 540335); assay type: functional; details: Homo sapiens
BJ [6] = assay: BJ-TERT fibroblast viability loss – cell-based, RAS-independent, luminescence, dose response (AID 1933); assay type: functional; details: Homo sapiens
BJ [7] = assay: cells; assay type: functional, cell-based; details: Homo sapiens
BJ [8] = assay: BJ-TERT-LT-ST fibroblast viability loss – cell-based, RAS-independent, luminescence, dose response (AID 1935); assay type: functional; details: Homo sapiens;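 note: BJ fibroblasts immortalized with TERT plus LT and ST oncogenes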
[9] = DRD fibroblast viability loss – cell-based, non-viral oncogenic, luminescence, dose response (AID 1934); assay type: functional; details: Homo sapiens
A-375 [10] = assay: MITF: Counter assay: A375 proliferation Measured in Cell-Based System Using Plate Reader - 2084-03_Inhibitor_Dose_DryPowder_Activity. [Related pubchem assays (depositor defined):AID488944]; assay type: functional; details: Homo sapiens
[11] = reduction of Shn3 3'UTR-driven luciferase in osteoblasts – cell-based, Clone20 osteoblasts, firefly luciferase, cherry-picked, dose response (AID 624132); assay type: functional;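 note: firefly luciferase luminescence from reporter carrying the Shn3 3'UTR in osteoblasts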
[12] = loss of viability in HepG2 cells – cell-based, CellTiter-Glo, cherry-picked, cytotoxicity control for Shn3 inhibitor project, dose response (AID 624134); assay type: functional
[13] = non-specific 3'UTR reporter inhibition in Clone20-Shn3RL – cell-based, Renilla luciferase, cherry-picked, counter-screen for Shn3 inhibitor project, dose response (AID 624133); assay type: functional
[14] = biological target: T2, Voltage-gated N-type calcium channel alpha-1B subunit/Amyloid beta A4 precursor protein-binding family A member 1 (Homo sapiens, UniProt Q00975+Q02410); assay type: protein assay
T2 sequence (Q00975 whole entry): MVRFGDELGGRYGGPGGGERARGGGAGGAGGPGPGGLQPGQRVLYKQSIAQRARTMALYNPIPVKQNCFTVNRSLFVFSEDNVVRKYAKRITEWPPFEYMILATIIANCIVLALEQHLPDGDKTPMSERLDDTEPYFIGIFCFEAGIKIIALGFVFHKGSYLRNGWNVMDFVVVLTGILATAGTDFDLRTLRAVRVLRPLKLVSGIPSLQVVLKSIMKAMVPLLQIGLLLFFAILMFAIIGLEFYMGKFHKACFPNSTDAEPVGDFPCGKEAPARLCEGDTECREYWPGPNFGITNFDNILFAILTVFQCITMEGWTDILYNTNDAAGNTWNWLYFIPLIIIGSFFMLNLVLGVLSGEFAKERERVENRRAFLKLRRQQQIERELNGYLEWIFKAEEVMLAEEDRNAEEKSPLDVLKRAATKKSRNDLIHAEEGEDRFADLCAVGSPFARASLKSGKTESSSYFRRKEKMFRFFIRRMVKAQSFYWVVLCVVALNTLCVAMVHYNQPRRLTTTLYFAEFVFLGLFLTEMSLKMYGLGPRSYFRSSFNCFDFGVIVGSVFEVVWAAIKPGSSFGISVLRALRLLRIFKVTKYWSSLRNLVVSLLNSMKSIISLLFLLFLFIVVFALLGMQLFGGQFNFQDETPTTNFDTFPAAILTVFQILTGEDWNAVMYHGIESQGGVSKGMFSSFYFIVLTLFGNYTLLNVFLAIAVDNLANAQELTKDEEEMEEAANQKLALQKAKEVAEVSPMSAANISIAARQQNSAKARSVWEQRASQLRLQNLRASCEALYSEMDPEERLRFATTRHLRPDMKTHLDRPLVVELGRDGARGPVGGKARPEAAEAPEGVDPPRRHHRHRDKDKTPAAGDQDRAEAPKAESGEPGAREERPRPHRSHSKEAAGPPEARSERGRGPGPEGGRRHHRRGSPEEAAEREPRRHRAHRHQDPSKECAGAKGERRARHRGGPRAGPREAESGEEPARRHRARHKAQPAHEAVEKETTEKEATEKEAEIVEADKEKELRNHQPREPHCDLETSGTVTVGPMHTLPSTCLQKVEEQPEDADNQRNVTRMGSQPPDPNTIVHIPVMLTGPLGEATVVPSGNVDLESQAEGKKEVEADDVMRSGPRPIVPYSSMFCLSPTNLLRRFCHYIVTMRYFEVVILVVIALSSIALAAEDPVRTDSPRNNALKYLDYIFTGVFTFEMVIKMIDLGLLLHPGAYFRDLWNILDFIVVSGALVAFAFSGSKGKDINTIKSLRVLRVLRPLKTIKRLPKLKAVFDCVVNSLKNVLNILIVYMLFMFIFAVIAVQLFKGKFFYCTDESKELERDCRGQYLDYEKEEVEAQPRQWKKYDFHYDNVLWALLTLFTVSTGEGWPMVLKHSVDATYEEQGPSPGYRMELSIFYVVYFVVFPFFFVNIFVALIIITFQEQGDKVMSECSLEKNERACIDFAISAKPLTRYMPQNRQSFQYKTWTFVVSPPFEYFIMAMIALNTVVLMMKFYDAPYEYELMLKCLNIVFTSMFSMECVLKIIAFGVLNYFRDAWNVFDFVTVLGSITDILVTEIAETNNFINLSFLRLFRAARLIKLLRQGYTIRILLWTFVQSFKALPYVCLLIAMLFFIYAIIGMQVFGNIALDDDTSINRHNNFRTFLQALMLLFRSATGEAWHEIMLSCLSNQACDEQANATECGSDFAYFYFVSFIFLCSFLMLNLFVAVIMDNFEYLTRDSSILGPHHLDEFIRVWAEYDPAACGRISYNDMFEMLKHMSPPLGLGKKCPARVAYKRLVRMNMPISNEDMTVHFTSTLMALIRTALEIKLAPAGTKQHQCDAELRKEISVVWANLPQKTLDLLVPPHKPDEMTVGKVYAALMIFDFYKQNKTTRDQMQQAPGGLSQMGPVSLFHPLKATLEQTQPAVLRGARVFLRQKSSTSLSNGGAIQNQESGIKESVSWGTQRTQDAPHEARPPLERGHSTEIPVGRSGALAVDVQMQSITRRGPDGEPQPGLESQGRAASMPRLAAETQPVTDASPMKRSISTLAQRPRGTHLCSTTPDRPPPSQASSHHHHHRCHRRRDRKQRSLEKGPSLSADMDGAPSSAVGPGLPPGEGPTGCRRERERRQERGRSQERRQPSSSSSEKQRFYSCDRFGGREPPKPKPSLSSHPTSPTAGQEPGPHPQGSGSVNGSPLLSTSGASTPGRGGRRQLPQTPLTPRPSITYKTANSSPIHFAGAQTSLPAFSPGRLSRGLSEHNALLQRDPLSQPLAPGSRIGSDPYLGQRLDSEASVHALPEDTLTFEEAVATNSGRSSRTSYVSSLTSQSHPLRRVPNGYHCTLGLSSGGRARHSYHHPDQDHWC
T2 sequence (Q02410 whole entry): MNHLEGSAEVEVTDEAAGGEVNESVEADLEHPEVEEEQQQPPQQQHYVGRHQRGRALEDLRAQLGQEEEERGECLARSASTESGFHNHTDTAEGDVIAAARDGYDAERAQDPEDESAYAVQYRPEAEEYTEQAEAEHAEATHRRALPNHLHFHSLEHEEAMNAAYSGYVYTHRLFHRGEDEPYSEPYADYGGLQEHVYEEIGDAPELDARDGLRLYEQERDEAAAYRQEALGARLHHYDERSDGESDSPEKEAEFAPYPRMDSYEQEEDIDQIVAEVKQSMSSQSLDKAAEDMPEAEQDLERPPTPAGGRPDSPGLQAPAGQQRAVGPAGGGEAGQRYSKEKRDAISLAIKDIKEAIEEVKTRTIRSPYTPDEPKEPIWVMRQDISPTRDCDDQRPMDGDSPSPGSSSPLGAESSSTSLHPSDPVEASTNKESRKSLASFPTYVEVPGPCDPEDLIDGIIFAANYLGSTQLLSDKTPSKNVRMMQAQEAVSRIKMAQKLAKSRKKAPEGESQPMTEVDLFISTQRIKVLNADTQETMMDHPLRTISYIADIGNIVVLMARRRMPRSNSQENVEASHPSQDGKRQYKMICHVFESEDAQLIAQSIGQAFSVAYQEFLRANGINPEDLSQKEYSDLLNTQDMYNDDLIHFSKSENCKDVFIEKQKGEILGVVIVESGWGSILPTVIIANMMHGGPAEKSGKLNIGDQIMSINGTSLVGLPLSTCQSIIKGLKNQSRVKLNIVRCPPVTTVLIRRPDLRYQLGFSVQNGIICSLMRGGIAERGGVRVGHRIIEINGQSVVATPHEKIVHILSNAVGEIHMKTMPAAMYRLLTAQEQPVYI

[15] = biological target: T2, Voltage-gated N-type calcium channel alpha-1B subunit/Amyloid beta A4 precursor protein-binding family A member 1; assay type: protein assay; remark: listed apart in the source
[16] = biological target: T3, Apoptotic protease-activating factor 1 (Homo sapiens, UniProt O14727); assay: activation of Apaf-1 mediated apoptosis – fluorescent, uHTS hits, dose response (AID 588554); assay type: functional
T3 sequence (O14727 whole entry): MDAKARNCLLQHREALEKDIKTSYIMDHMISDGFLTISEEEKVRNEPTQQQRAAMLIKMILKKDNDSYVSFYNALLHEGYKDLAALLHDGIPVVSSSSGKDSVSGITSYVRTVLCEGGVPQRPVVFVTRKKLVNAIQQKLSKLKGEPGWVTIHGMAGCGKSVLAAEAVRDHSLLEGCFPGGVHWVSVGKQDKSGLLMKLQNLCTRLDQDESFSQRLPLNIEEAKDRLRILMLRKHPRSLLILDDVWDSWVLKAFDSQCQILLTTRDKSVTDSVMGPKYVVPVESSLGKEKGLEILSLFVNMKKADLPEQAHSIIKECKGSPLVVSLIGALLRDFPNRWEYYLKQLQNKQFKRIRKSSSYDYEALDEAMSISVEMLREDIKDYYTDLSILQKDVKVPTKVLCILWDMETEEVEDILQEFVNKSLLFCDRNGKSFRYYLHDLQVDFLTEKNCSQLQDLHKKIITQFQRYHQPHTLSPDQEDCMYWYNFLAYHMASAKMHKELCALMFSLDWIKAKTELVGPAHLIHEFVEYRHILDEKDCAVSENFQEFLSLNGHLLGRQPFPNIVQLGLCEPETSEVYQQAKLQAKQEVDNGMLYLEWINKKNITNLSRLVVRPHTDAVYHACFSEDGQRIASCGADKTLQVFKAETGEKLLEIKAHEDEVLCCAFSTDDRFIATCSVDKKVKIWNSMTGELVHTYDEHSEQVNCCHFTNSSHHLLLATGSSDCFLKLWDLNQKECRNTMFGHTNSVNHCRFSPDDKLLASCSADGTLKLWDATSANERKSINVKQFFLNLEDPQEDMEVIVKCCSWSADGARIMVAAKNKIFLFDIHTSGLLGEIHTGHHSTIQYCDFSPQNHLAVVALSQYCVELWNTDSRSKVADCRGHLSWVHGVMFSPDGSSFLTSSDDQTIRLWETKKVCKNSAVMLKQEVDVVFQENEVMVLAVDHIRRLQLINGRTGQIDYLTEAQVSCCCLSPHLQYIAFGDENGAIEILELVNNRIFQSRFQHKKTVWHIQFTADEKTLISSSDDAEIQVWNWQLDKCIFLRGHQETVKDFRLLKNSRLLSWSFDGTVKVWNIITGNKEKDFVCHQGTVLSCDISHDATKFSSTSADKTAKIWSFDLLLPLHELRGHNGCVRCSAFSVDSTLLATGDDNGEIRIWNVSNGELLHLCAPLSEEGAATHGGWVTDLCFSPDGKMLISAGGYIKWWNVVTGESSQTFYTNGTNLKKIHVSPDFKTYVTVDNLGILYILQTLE

[17] = biological target: T3, Apoptotic protease-activating factor 1; assay: SAR analysis of small molecule Activators of Apaf-1 in a Fluorescent assay.; assay type: functional; details: read-out: EC50_Mean
[18] = biological target: T4, Small ubiquitin-related modifier 1 (Homo sapiens, UniProt P63165); assay: SUMO1 protein interaction blockers, potency – biochemical, fluorescence polarization, uHTS hits, dose response (AID 624382); assay type: functional; details: read-out: IC50_Mean
T4 sequence (P63165 whole entry): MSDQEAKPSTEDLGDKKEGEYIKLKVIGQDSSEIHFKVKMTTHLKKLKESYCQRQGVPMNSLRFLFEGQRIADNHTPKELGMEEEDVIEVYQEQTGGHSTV

[19] = biological target: T4, Small ubiquitin-related modifier 1; assay: SUMO1 protein-protein binding blockers, potency – biochemical, FRET, dose response (AID 624383); assay type: functional; details: read-out: IC50_Mean
Candida albicans [20] = assay: fluconazole-resistant Candida strain growth inhibitors – CaCi-8 strain, dry powder, set 4, dose response (AID 488950); assay type: functional, organism-based
Candida albicans [21] = assay: Candida growth reduction in fluconazole presence – CaCi-2 strain, Alamar Blue, dry powder, set 2, antifungal resistance reversal project, dose response (AID 488930); assay type: functional, organism-based
Candida albicans [22] = assay: C. albicans growth inhibition with fluconazole – CaCi-2 strain, Alamar Blue, dry powder, set 4, dose response (AID 488943); assay type: functional, organism-based
Candida albicans [23] = assay: resistant Candida growth with fluconazole co-treatment – CaCi-8 strain, Alamar Blue, dry powder, set 2, dose response (AID 488909); assay type: functional, organism-based
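Throughout, for EC50 Mean: caspase-3 cleavage of fluorogenic Rh110 DEVD substrate downstream of apoptosome activation.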

O=C1C(Cl)=C(Nc2ccccc2)C(=O)c2ccccc21
EC50 [1]: 8.47 µM (active)
EC50 [2]: 4.77 µM (active)
AC50 [3]: 0.779 µM (active)
AC50 [4]: 2.88 µM (active)
AC50 (A-375 [5]): 4.17 µM (active)

Cc1cccc(N2C(=O)NC(=O)/C(=C\C=C\c3ccco3)C2=O)c1
EC50 (BJ [6]): 4.02 µM (active)
EC50 (BJ [7]): 11.3 µM (active)
EC50 (BJ [8]): 4.93 µM (inconclusive)
EC50 [9]: 3.62 µM (active)
AC50 [4]: 5.75 µM (active)
AC50 (A-375 [10]): 28.4 µM (active)
AC50 [11]: 3.06 µM (active)
AC50 [12]: 25.6 µM (active)
AC50 [13]: 26.4 µM (active)

O=C(Nc1nc2ccsc2c(=O)s1)c1ccco1
IC50 [14]: 11.8 µM (active)
IC50 [15]: > 50 µM (inactive)
EC50 [16]: 22.8 µM (active)
EC50 [17]: 59 µM (active)
IC50 [18]: > 66.6 µM (inactive)
IC50 [19]: 15.9 µM (active)

CC1CN(c2ccnc3cc(Cl)ccc23)CCN1C(=O)c1ccc(Cl)cc1 (centres undefined)
AC50 (Candida albicans [20]): 1.82 µM (active)
AC50 (Candida albicans [21]): 0.645 µM (active)
AC50 (Candida albicans [22]): 0.783 µM (active)
AC50 (Candida albicans [23]): 6.14 µM (active)
